# Biological target: T1, human renin (Homo sapiens, UniProt P00797)
# T1 construct: A human plasma pool is used as the source of both the substrate (angiotensinogen) and the enzyme (renin); from tissue; host or cells: human plasma pool
# T1 sequence (P00797 67-406): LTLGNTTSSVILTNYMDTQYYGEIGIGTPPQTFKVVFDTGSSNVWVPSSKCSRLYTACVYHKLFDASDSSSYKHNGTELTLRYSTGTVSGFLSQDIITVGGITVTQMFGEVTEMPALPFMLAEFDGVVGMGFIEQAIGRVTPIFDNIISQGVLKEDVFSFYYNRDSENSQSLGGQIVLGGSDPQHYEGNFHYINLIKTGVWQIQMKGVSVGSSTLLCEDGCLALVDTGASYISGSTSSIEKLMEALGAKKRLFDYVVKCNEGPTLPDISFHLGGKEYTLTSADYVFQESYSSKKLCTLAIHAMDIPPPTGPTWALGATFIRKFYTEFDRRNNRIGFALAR
# Experiment: Plasma renin assay (inhibition of human renin, angiotensin I by RIA)
# Format: biochemical
# Settings: human plasma pool, pH 6.0, 2 h incubation at 37°
# Outline: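 Pooled human plasma supplies both renin and angiotensinogen; inhibitor in MES/1% HSA buffer (1% DMSO final) incubated 2 h at 37° at pH 6.0. Angiotensin I generated quantified by radioimmunoassay, inhibition relative to no-inhibitor control, IC50 by nonlinear regression.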
row,IC50 [µM],Structure (SMILES)
1,0.034,"CC(C)C[C@H](O)[C@H](O)[C@H](CC1CCCCC1)NC(=O)[C@@H](CC(=O)N(CC(=O)N(C)CCc1ccccn1)Cc1ccccc1)CC1CC1 [Compound 12, N^4-benzyl-N^4 -{2-{methyl[2-(2-pyridinyl)ethyl]amino}-2-oxoethyl}-N^1-[1(S)-(cyclohexylmethyl)-2(R),3(S)-dihydroxy-5-methylhexyl]-2(R)-(cyclopropylmethyl)butanediamide]"
2,0.068,"CC(C)C[C@H](O)[C@H](O)[C@H](CC1CCCCC1)NC(=O)[C@@H](CC(=O)N(CC(=O)N(C)CCc1ccncc1)Cc1ccccc1)CC1CC1 [Compound 29, N^4-benzyl-N^4 -{2-{methyl[2-(4-pyridinyl)ethyl]amino}-2-oxoethyl}-N^1-[1(S)-(cyclohexylmethyl)-2(R)3(S)-dihydroxy-5-methylhexyl]-2(R)-(cyclopropylmethyl)butanediamide]"
3,0.0015,CC(C)C[C@H](O)[C@H](O)[C@H](CC1CCCCC1)NC(=O)[C@@H](CC(=O)N(CC(=O)N1CCOCC1)CC1CCCCC1)Cc1csc(N)n1 [Compound 49]
4,0.037,"CC(C)C[C@H](O)[C@H](O)[C@H](CC1CCCCC1)NC(=O)[C@@H](CC(=O)N(CC(=O)N(C)C)C[C@@H](C)c1ccccc1)CC1CC1 [Compound 20, N^4-[2-(dimethylamino)-2-oxoethyl]-N^4-(2(S)-phenylpropyl]-N^1-(1(S)-(cyclohexylmethyl)-2(R),3(S)-dihydroxy-5-methylhexyl]-2(R)-(cyclopropylmethyl)butanediamide]"
5,0.0009,"CC(C)C[C@H](O)[C@H](O)[C@H](CC1CCCCC1)NC(=O)[C@@H](CC(=O)N(CC(=O)N(C)C)CC1CCCCC1)Cc1csc(N)n1 [Compound 48, N^4-(cyclohexylmethyl)-N^4-[2-(dimethylamino)-2-oxoethyl]-N^1-[1(S)-(cyclohexylmethyl)-2(R),3(S)-dihydroxy-5-methylhexyl]-2(R)-[(2-amino-4-thiazolyl)methyl]butanediamide]"
6,0.034,"CC(C)C[C@H](O)[C@H](O)[C@H](CC1CCCCC1)NC(=O)[C@@H](CC(=O)N(CC(=O)N(C)C)[C@@H](C)c1ccccc1)CC1CC1 [Compound 17, N^4-[2-(dimethylamino)-2-oxoethyl]-N^4-[1(S)-phenylethyl]-N^1-[1(S)-(cyclohexylmethyl)-2(R),3(S)-dihydroxy-5-methylhexyl]-2(R)-(cyclopropylmethyl)butanediamide]"
7,0.001,"CC(C)C[C@H](O)[C@H](O)[C@H](CC1CCCCC1)NC(=O)[C@@H](CC(=O)N(CC(=O)N(C)CCc1ccccn1)CC1CCCC1)Cc1csc(N)n1 [Compound 71, N^4-(cyclopentylmethyl)-N^4 -{2-{methyl[2-(2-pyridinyl)ethyl]-amino}-2-oxoethyl]-N^1-[1(S)-(cyclohexylmethyl)-2(R),3(S)-dihydroxy-5-methylhexyl]-2(R)-[(2-amino-4-thiazolyl)methyl]butanediamide]"
